Assay results: ChEMBL document CHEMBL1201862, “PubChem BioAssay data set” (2004)
Active and inactive are the calls of the source.

Columns and labels:
[1] = reduction of Shn3 3'UTR-driven luciferase in osteoblasts – cell-based, Clone20 osteoblasts, firefly luciferase, cherry-picked, dose response (AID 624132); assay type: functional;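 also: firefly luciferase luminescence from reporter carrying the Shn3 3'UTR in osteoblasts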
[2] = loss of viability in HepG2 cells – cell-based, CellTiter-Glo, cherry-picked, cytotoxicity control for Shn3 inhibitor project, dose response (AID 624134); assay type: functional
[3] = non-specific 3'UTR reporter inhibition in Clone20-Shn3RL – cell-based, Renilla luciferase, cherry-picked, counter-screen for Shn3 inhibitor project, dose response (AID 624133); assay type: functional
Fatty acid synthase [4] = target: T1, Fatty acid synthase (Homo sapiens, UniProt P49327); assay: inhibition of human FAS-TE enzyme activity – biochemical, kinetic fluorescence intensity, dose response (AID 624326); assay type: functional;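 also: rate of fluorescence rise from hydrolysis of a fluorogenic O-methyl fluorescein ester substrate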
T1 sequence (P49327 whole entry): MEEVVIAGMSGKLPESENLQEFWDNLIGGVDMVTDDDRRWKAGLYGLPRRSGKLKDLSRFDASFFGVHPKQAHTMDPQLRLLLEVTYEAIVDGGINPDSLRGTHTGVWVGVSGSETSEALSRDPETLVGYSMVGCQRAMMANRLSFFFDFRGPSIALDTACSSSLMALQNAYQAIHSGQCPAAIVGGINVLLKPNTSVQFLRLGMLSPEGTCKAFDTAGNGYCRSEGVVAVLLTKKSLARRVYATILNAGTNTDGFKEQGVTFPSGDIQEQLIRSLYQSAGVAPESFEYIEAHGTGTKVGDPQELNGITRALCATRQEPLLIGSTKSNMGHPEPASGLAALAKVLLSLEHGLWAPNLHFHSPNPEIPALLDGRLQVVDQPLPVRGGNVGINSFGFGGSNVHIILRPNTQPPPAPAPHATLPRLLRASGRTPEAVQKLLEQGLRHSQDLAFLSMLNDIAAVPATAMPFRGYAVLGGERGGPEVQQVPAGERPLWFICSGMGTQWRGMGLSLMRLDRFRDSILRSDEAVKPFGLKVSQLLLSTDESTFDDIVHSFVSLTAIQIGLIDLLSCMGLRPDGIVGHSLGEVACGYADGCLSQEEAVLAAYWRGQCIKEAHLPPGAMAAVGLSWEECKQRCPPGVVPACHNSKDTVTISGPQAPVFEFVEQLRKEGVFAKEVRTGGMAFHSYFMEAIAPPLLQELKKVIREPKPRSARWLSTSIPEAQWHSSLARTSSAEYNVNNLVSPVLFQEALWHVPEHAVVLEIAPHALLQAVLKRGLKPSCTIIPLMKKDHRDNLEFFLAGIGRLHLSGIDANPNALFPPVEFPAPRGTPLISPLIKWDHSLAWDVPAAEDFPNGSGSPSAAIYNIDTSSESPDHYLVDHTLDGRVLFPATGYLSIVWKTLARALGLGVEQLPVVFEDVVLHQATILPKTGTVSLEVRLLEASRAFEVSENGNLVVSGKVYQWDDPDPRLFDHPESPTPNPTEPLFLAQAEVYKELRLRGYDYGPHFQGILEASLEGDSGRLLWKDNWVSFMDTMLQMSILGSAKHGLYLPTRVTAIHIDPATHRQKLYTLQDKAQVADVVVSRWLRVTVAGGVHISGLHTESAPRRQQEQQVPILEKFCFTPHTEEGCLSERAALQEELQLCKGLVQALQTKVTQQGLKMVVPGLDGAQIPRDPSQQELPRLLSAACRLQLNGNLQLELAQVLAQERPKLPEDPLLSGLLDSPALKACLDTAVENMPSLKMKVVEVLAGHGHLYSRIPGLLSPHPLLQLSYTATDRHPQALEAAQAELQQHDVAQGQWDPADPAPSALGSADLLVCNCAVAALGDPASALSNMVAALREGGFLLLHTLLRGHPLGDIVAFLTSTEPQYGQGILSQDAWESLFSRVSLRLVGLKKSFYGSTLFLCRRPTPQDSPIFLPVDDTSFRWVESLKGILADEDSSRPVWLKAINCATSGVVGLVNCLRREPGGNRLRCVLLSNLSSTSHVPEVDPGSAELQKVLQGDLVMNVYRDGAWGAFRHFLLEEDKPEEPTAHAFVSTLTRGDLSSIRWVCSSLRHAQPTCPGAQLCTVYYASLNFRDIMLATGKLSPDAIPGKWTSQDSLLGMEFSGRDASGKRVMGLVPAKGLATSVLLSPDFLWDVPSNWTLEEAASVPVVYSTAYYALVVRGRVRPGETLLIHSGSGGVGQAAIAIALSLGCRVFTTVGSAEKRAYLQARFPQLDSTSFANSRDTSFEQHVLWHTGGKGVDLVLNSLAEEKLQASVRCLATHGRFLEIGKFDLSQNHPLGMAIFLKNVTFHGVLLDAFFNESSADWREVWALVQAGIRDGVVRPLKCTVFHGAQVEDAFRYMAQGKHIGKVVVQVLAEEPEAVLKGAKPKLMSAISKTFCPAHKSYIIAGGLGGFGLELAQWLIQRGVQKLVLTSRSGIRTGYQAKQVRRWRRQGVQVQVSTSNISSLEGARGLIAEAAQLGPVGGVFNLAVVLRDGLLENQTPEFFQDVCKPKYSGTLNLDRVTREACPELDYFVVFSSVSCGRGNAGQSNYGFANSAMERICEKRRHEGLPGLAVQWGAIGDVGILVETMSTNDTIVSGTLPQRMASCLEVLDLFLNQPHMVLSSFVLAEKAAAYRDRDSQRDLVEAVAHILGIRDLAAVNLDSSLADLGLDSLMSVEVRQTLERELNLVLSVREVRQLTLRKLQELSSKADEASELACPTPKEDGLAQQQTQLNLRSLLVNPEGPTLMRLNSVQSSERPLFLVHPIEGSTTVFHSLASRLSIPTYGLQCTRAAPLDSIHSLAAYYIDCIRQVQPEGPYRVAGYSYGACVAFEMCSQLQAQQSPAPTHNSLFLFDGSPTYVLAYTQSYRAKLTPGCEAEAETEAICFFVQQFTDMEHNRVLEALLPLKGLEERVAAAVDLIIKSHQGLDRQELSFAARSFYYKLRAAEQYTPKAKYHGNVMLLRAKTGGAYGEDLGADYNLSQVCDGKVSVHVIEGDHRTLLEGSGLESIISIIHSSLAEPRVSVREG

Fatty acid synthase [5] = target: T1, Fatty acid synthase; assay: inhibition of human FAS-TE enzyme activity – biochemical, endpoint fluorescence intensity, uHTS hits, dose response (AID 624327); assay type: functional;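 also: fluorescence from hydrolysis of an O-methyl fluorescein acyl ester substrate by the enzyme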
[6] = viability of PTEN-deleted HCT116 cells – cell-based, HCT116 PTEN knockout, dose response (AID 1047); assay type: functional;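 also: HCT116 colon tumor cells with PTEN knocked out; cells exposed to compound for 60 hours before readout; potency for loss of cell viability measured by luminescence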
[7] = viability of HCT116 lacking mutant beta-catenin – cell-based, human colon tumor, dose response (AID 1045); assay type: functional;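 also: HCT116 colon tumor cells with beta catenin knocked out; cells exposed to compound for 60 hours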
BJ [8] = assay: BJ-TERT-LT-ST fibroblast viability loss – cell-based, RAS-independent, luminescence, dose response (AID 1935); assay type: functional; conditions: Homo sapiens;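 also: BJ fibroblasts immortalized with TERT plus LT and ST oncogenes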
BJ [9] = assay: BJ-TERT fibroblast viability loss – cell-based, RAS-independent, luminescence, dose response (AID 1933); assay type: functional; conditions: Homo sapiens
[10] = DRD fibroblast viability loss – cell-based, non-viral oncogenic, luminescence, dose response (AID 1934); assay type: functional; conditions: Homo sapiens
BJ [11] = assay: cells; assay type: functional, cell-based; conditions: Homo sapiens
[12] = target: FAD-linked sulfhydryl oxidase ALR (Homo sapiens, UniProt P55789); assay: ALR-catalysed DTT oxidation blockers – biochemical, H2O2 detection, luminescence, cherry-pick, dose response (AID 493248)
Chain of FAD-linked sulfhydryl oxidase ALR (P55789 whole entry): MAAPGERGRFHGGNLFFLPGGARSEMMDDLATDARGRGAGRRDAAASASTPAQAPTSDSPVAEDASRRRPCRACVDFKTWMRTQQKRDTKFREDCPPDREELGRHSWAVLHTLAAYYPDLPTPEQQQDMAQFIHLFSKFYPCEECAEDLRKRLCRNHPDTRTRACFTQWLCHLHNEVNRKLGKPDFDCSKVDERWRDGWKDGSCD

INS1 = assay: INS-1E survival protection against cytokine death – cell-based, luminescence, retest, dose response (AID 449756); assay type: functional; conditions: Rattus norvegicus;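 also: cell death triggered by IL-1 beta plus TNF-alpha plus IFN-gamma mixture; protective hits raise ATP signal compared with cytokine alone wells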
[13] = target: T2, Ubiquitin-conjugating enzyme E2 N (Homo sapiens, UniProt P61088); assay type: functional;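 also: Dose-response confirmation in a TR-FRET assay detecting UBC13-driven polyubiquitin chain formation, inhibition measured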
T2 sequence (P61088 whole entry): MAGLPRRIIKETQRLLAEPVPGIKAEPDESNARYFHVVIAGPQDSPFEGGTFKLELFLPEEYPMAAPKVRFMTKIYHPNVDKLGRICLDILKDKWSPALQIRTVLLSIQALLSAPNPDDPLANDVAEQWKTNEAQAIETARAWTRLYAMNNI

[14] = alpha-synuclein stem-loop luciferase translation blockers – H4 neuroglioma cells, luminescence, confirmation (AID 1988); assay type: functional, cell-based
[15] = luciferase reporter signal suppression in cells – H4 neuroglioma cells, luminescence, dose response (AID 1990); assay type: functional, cell-based
[16] = Luminescence Cell-Based Dose Response HTS to Identify Inhibitors of 5'UTR Stem-Loop Driven Prion Protein mRNA Translation in H4 Neuroglioblastoma Cells. [Related pubchem assays: 1827 (Project Summary), 1813 (Primary HTS)]; assay type: functional
[17] = P. falciparum Dd2 growth inhibitors, dose response, SYBR Green, cherry-picked samples (AID 1159567); assay type: functional, cell-based
[18] = intracellular Trypanosoma cruzi inhibitors in host cells – cell-based, plate reader, cherry-pick samples, set 3, dose response (AID 651818); assay type: functional;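 also: compounds incubated with infected cells for about four days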
[19] = HIV-1 AD8 envelope cell-cell fusion blockers – cherry-pick, dose response (AID 652062); assay type: functional, cell-based;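 also: luciferase signal from cell-cell fusion driven by HIV-1 clade B AD8 Env; potency is for inhibitors of fusion seen as a drop in luminescence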
P388 = assay: cells; assay type: functional; conditions: Mus musculus
P388/ADR = assay: cells; assay type: functional; conditions: Mus musculus
SN12K1 = assay: cells; assay type: functional; conditions: Homo sapiens

Compound: O=C(Nc1ccc(F)c(F)c1)c1ccc(F)c(S(=O)(=O)N2CCC3(CC2)OCCO3)c1
- AC50 [1]: 12.2 µM (active)
- AC50 [2]: 42.3 µM (active)
- AC50 [3]: 11.2 µM (active)

Compound: COc1cccc(NC(C)C(=O)Nc2cc([N+](=O)[O-])ccc2Cl)c1 (stereo not given)
- IC50 (Fatty acid synthase [4]): 12.4 µM (active)
- IC50 (Fatty acid synthase [5]): 9.92 µM (active)

Compound: CC(C)(C)c1ccc(OCCC(=O)OCC(=O)N2c3ccccc3NC(=O)C2(C)C)cc1
- IC50 (Fatty acid synthase [4]): 4.48 µM (active)
- IC50 (Fatty acid synthase [5]): 11.2 µM (active)

Compound: O=C(/C=C/c1cccc([N+](=O)[O-])c1)NCCSCc1ccc(Cl)cc1
- IC50 (Fatty acid synthase [4]): 11.6 µM (active)
- IC50 (Fatty acid synthase [5]): 10.2 µM (active)

Compound: COc1ccccc1/C=C(\NC(=O)c1ccc(OC)c(OC)c1)C(=O)Nc1cc([N+](=O)[O-])ccc1C
- EC50 [6]: 43.6 µM (active)
- EC50 [7]: 44.4 µM (active)
- IC50 (Fatty acid synthase [4]): 3.48 µM (active)
- IC50 (Fatty acid synthase [5]): 2.16 µM (active)

Compound: O=Cc1cccnc1SCc1ccccc1
- EC50 (BJ [8]): 11.1 µM (inconclusive)
- EC50 (BJ [9]): 10.5 µM (active)
- EC50 [10]: 21.3 µM (active)
- EC50 (BJ [11]): 16.3 µM (active)

Compound: COc1cccc(CNn2cnnc2)c1O
- AC50 [12]: 2.23 µM (active)

Compound: Cc1ccc(C)c(NC(=O)CN(C)C(=O)c2cccc(S(=O)(=O)N3CCN(Cc4ccccc4)CC3)c2)c1
- AC50 [1]: 3.5 µM (active)
- AC50 [2]: 62.2 µM (active)
- AC50 [3]: 5.74 µM (active)

Compound: C=CCNc1nc(N2CCOCC2)c(C#N)c2c1CN(C)CC2
- AC50 [1]: > 70 µM (inactive)
- AC50 [3]: 28.2 µM (active)

Compound: Cc1ccc(S(=O)(=O)N2CCN(c3ncnc4ccccc34)CC2)cc1
- AC50 [1]: 1.56 µM (active)
- AC50 (INS1): 4.61 µM (active)
- AC50 [2]: 4.03 µM (active)
- AC50 [3]: 13.7 µM (active)

Compound: O=C(Nc1ccc(Cl)cn1)c1cccc(F)c1
- EC50 (BJ [8]): > 150 µM (inconclusive)
- EC50 (BJ [9]): 18.4 µM (active)
- EC50 [10]: 18.4 µM (active)
- EC50 (BJ [11]): 35.6 µM (active)

Compound: O=C(C1CCCCC1)N1CCN=C1SCc1cccnc1
- AC50 [12]: 0.097 µM (active)

Compound: C=CCNc1nc(N2CCCCC2)c(C#N)c2c1CN(Cc1ccccc1)CC2
- AC50 [1]: 16.8 µM (active)
- AC50 [2]: > 70 µM (inactive)
- AC50 [3]: 28.9 µM (active)

Compound: COc1ccccc1C(=O)COC(=O)c1cc([N+](=O)[O-])ccc1N1CCOCC1
- IC50 (Fatty acid synthase [4]): 6.45 µM (active)
- IC50 (Fatty acid synthase [5]): 5.96 µM (active)

Compound: COc1ccc(C2=NN(C(=O)CSc3nc(=O)n4ccc(C)cc4n3)C(c3ccc(C)cc3)C2)cc1 (stereo not given)
- IC50 (Fatty acid synthase [4]): 8.93 µM (active)
- IC50 (Fatty acid synthase [5]): 9.17 µM (active)

Compound: COC(=O)C1=C(C)N(CC2CC2)C(NCc2cccc(C(F)(F)F)c2)=N[C@H]1c1ccccc1
- IC50 [13]: > 20 µM (inactive)

Compound: CCCCNC(=O)c1ccc(CS(=O)(=O)c2ccc(C)cc2)o1
- AC50 [12]: 15.6 µM (active)

Compound: Cc1ccc2c(c1)C(c1ccccc1)N(C(=O)c1cccc([N+](=O)[O-])c1)CC(=O)N2 (stereo not given)
- IC50 (Fatty acid synthase [4]): 2.53 µM (active)
- IC50 (Fatty acid synthase [5]): 2.57 µM (active)

Compound: CSCC[C@H](NC(=O)N1CCn2c1nc1ccccc12)C(=O)NCc1ccco1
- AC50 [12]: 6.97 µM (active)

Compound: COc1ccc(C)cc1NC(=O)CNC(c1ccccc1)c1ccc(C)cc1 (stereo not given)
- EC50 (BJ [8]): 2.79 µM (active)
- EC50 (BJ [9]): 2.53 µM (active)
- EC50 [10]: 1.39 µM (active)
- EC50 [14]: 0.205 µM (active)
- EC50 [15]: 10.3 µM (active)
- EC50 (BJ [11]): 50.2 µM (inconclusive)

Compound: COc1ccc(NC2CCCN(C(=O)c3cn(C)c4ccccc34)C2)cc1 (stereo not given)
- AC50 [12]: 3.1 µM (active)

Compound: Sc1nc2ccc(Cl)cc2s1
- AC50 [12]: 2.39 µM (active)

Compound: COc1cccc(N2CCN(C(=O)c3ccc(C[S+]([O-])c4ccc(Cl)cc4)o3)CC2)c1 (stereo not given)
- EC50 [16]: 6.76 µM (active)
- EC50 [14]: 0.67 µM (active)
- AC50 [12]: 3.44 µM (active)
- EC50 [15]: 4.79 µM (inconclusive)

Compound: CCO[C@H]1OC(C(=O)NCc2ccccc2)=C[C@@H](C2CCCCC2)[C@@H]1CCCO
- IC50 (Fatty acid synthase [4]): 11.5 µM (active)
- IC50 (Fatty acid synthase [5]): 7.45 µM (active)

Compound: CC[C@@H](C)[C@@H]1CN([C@@H](CN2CCC[C@H]2CN2C(N)=NC[C@H]2C(C)C)C(C)C)C(=N)N1CCCC1CCCC1
- IC50 [13]: > 20 µM (inactive)

Compound: COc1cc(NC(=O)COc2cccc3c2OC(C)(C)C3)cc(OC)c1OC
- AC50 [1]: 4.38 µM (active)
- AC50 [3]: 3.03 µM (active)

Compound: CCC[C@@H](CN1CCC[C@H]1CN1C(N)=NC[C@H]1C(C)C)N1C[C@@H]([C@H](C)CC)N(CCCC2CCCC2)C1=N
- IC50 [13]: > 20 µM (inactive)

Compound: CC(NC(=O)Cn1cc([N+](=O)[O-])cn1)c1ccc(C(C)(C)C)cc1 (stereo not given)
- IC50 (Fatty acid synthase [4]): 4.54 µM (active)
- IC50 (Fatty acid synthase [5]): 4.06 µM (active)

Compound: C[C@@H]1CN([C@H](C)CO)C(=O)c2c(c3ccccc3n2C)-c2ccccc2CO[C@H]1CN(C)Cc1ccc(Oc2ccccc2)cc1
- AC50 [17]: 3.03 µM (active)

Compound: C[C@@H]1CN([C@@H](C)CO)C(=O)c2cccc(NC(=O)CCCCCC(=O)Nc3ccccc3N)c2O[C@@H]1CN(C)S(=O)(=O)c1ccc(Cl)cc1
- AC50 [18]: 3.26 µM (active)

Compound: C[C@@H]1CCCCO[C@@H](CN(C)C(=O)Nc2ccc(C(F)(F)F)cc2)[C@@H](C)CN([C@H](C)CO)C(=O)c2cc(NC(=O)Nc3ccc(C(F)(F)F)cc3)ccc2O1
- AC50 [18]: 3.39 µM (active)

Compound: C[C@H]1CN([C@@H](C)CO)C(=O)c2cc(N(C)C)ccc2O[C@@H]1CN(C)C(=O)Nc1ccc(C(F)(F)F)cc1
- AC50 [18]: 5.64 µM (active)

Compound: C[C@H]1CN([C@@H](C)CO)C(=O)c2cccc(NC(=O)NC3CCCCC3)c2O[C@H]1CN(C)Cc1ccc(C(=O)Nc2ccccc2N)cc1
- AC50 [18]: 2.74 µM (active)

Compound: O=C(N/N=C/c1cc(I)cc(I)c1O)c1ccccn1
- AC50 [18]: 1.12 µM (active)

Compound: COc1ccc(S(=O)(=O)N(C)C[C@H]2Oc3ccc(NS(=O)(=O)c4ccc(F)cc4)cc3CC(=O)N([C@H](C)CO)C[C@H]2C)cc1
- AC50 [18]: 8.25 µM (active)

Compound: C[C@@H]1CN([C@H](C)CO)C(=O)Cc2cc(NC(=O)Nc3cccc4ccccc34)ccc2O[C@@H]1CN(C)Cc1ccc(Cl)c(Cl)c1
- AC50 [18]: 2.53 µM (active)

Compound: C[C@@H]1CN([C@H](C)CO)C(=O)Cc2cc(NS(=O)(=O)c3ccc(F)cc3)ccc2O[C@H]1CN(C)Cc1ccc(C(=O)Nc2ccccc2N)cc1
- AC50 [18]: 3.17 µM (active)

Compound: C[C@@H]1CN([C@H](C)CO)C(=O)c2cc(NC(=O)Cc3cn(C)c4ccccc34)ccc2O[C@@H]1CN(C)C(=O)Nc1ccc(C(F)(F)F)cc1
- AC50 [18]: 3.26 µM (active)

Compound: COc1ccc(NC(=O)C2(C)CCN2Cc2ccccc2OC(F)F)cc1OC (stereo not given)
- AC50 [19]: 55.5 µM (active)

Compound: Cc1[nH]c2ccccc2c1/C=N/NC(=O)Cc1cccs1
- AC50 [12]: 4.46 µM (active)

Compound: COc1ccc2c3c([nH]c2c1)[C@H](CO)N(Cc1cc(F)ccc1F)CC31CCN(C(C)=O)CC1
- AC50 [17]: 3.39 µM (active)

Compound: COc1ccc2c3c(n(C)c2c1)[C@H](CO)N(C(=O)Nc1cccc(F)c1)CC31CN(C)C1
- AC50 [17]: 5.83 µM (active)

Compound: CO[C@H]1CN(C)C(=O)c2ccc(NC(=O)c3nc4ccccc4s3)cc2OC[C@H](C)N(Cc2ccncc2)C[C@@H]1C
- AC50 [17]: 5.3 µM (active)

Compound: CCCNC(=O)N1CC(=O)N2[C@@H](CO)[C@@H](c3ccc(C#Cc4cccc(OC)c4)cc3)[C@@H]2C1
- AC50 [17]: 17 µM (active)

Compound: COc1ccc2c3c([nH]c2c1)[C@@H](CO)N(Cc1ccccc1F)CC31CN(C(=O)C2CCCC2)C1
- AC50 [17]: 6.64 µM (active)

Compound: O=C(NC1CC1)c1ccc(CSCc2ccccc2Cl)o1
- AC50 [12]: 0.549 µM (active)

Compound: CC1(C)S[C@@H]2[C@H](NC(=O)CCC[C@@H](N)C(=O)O)C(=O)N2[C@H]1C(=O)O [ADICILLIN]
- GI50 (P388): > 50 µM (inactive)
- GI50 (P388/ADR): > 50 µM (inactive)
- GI50 (SN12K1): > 50 µM (inactive)
